The data set can be described thus: activity coefficient (dimensionless); of the first substance listed, at infinite dilution; xn = mol fraction of the nth substance listed. Conditions: 101.33 kPa, Liquid, Chromatography, x1 = 0.

The values that follow come from the NIST ThermoML archive (doi:10.1016/j.fluid.2018.07.028).

± gives the expanded uncertainty stated by the source.

As for `CCCC(C)=O` [pentan-2-one] + CCCC[P+](CCCC)(CCCC)CCCC.O=S(=O)([N-]S(=O)(=O)C(F)(F)F)C(F)(F)F, the activity coefficient runs as follows: (358.15 K) 0.62 ± 0.043; (368.15 K) 0.651 ± 0.045; (378.15 K) 0.682 ± 0.046; (388.15 K) 0.714 ± 0.048; (398.15 K) 0.744 ± 0.049; (408.15 K) 0.774 ± 0.051.

Turning to `CCC(=O)CC` [pentan-3-one] + CCCC[P+](CCCC)(CCCC)CCCC.O=S(=O)([N-]S(=O)(=O)C(F)(F)F)C(F)(F)F, the activity coefficient (358.15 K) was 0.629 ± 0.043; the activity coefficient (368.15 K) amounted to 0.66 ± 0.045; the activity coefficient (378.15 K) worked out at 0.69 ± 0.05; the activity coefficient (388.15 K) is 0.721 ± 0.048; the activity coefficient (398.15 K) was found to be 0.75 ± 0.049; the activity coefficient (408.15 K) is 0.781 ± 0.051.

As for `CCCCC` [pentane] + CCCC[P+](CCCC)(CCCC)CCCC.O=S(=O)([N-]S(=O)(=O)C(F)(F)F)C(F)(F)F, the activity coefficient (358.15 K) was 3.61 ± 0.25; the activity coefficient (368.15 K) is 3.62 ± 0.25; the activity coefficient (378.15 K) was 3.65 ± 0.25; the activity coefficient (388.15 K) came to 3.66 ± 0.25; the activity coefficient (398.15 K) turned out to be 3.68 ± 0.25; the activity coefficient (408.15 K) came to 3.7 ± 0.25.

On to `CCCO` [propan-1-ol] + CCCC[P+](CCCC)(CCCC)CCCC.O=S(=O)([N-]S(=O)(=O)C(F)(F)F)C(F)(F)F, for which the activity coefficient is, setting by setting: (358.15 K) 1.53 ± 0.1; (368.15 K) 1.47 ± 0.1; (378.15 K) 1.42 ± 0.09; (388.15 K) 1.37 ± 0.09; (398.15 K) 1.32 ± 0.09; (408.15 K) 1.28 ± 0.08.

As for `CC(C)O` [propan-2-ol] + CCCC[P+](CCCC)(CCCC)CCCC.O=S(=O)([N-]S(=O)(=O)C(F)(F)F)C(F)(F)F, the activity coefficient runs as follows: (358.15 K) 1.47 ± 0.1; (368.15 K) 1.42 ± 0.09; (378.15 K) 1.37 ± 0.09; (388.15 K) 1.33 ± 0.09; (398.15 K) 1.29 ± 0.08; (408.15 K) 1.26 ± 0.08.

`CCCc1ccccc1` [propylbenzene] + CCCC[P+](CCCC)(CCCC)CCCC.O=S(=O)([N-]S(=O)(=O)C(F)(F)F)C(F)(F)F: the activity coefficient worked out at 1.88 ± 0.13 (358.15 K); 1.93 ± 0.13 (368.15 K); 1.98 ± 0.13 (378.15 K); 2.03 ± 0.14 (388.15 K); 2.07 ± 0.14 (398.15 K); 2.12 ± 0.14 (408.15 K).

Consider `C=Cc1ccccc1` [styrene] + CCCC[P+](CCCC)(CCCC)CCCC.O=S(=O)([N-]S(=O)(=O)C(F)(F)F)C(F)(F)F, for which the activity coefficient by setting is: (358.15 K) 1.01 ± 0.06; (368.15 K) 1.05 ± 0.07; (378.15 K) 1.1 ± 0.07; (388.15 K) 1.14 ± 0.07; (398.15 K) 1.18 ± 0.08; (408.15 K) 1.23 ± 0.08.

With `C1CCOC1` [tetrahydrofuran] + CCCC[P+](CCCC)(CCCC)CCCC.O=S(=O)([N-]S(=O)(=O)C(F)(F)F)C(F)(F)F, the activity coefficient is, setting by setting: (358.15 K) 0.622 ± 0.043; (368.15 K) 0.653 ± 0.045; (378.15 K) 0.682 ± 0.046; (388.15 K) 0.712 ± 0.047; (398.15 K) 0.742 ± 0.049; (408.15 K) 0.772 ± 0.05.

`c1ccsc1` [thiophene] + CCCC[P+](CCCC)(CCCC)CCCC.O=S(=O)([N-]S(=O)(=O)C(F)(F)F)C(F)(F)F: the activity coefficient by setting is: (358.15 K) 0.782 ± 0.051; (368.15 K) 0.812 ± 0.053; (378.15 K) 0.842 ± 0.054; (388.15 K) 0.872 ± 0.056; (398.15 K) 0.9 ± 0.057; (408.15 K) 0.929 ± 0.059.

For the compound `Cc1ccccc1` [toluene] + CCCC[P+](CCCC)(CCCC)CCCC.O=S(=O)([N-]S(=O)(=O)C(F)(F)F)C(F)(F)F, the activity coefficient (358.15 K) stood at 1.11 ± 0.07; the activity coefficient (368.15 K) worked out at 1.16 ± 0.07; the activity coefficient (378.15 K) was 1.2 ± 0.08; the activity coefficient (388.15 K) turned out to be 1.24 ± 0.08; the activity coefficient (398.15 K) came to 1.28 ± 0.08; the activity coefficient (408.15 K) amounted to 1.32 ± 0.09.

For the compound `C=COC(C)=O` [vinyl acetate] + CCCC[P+](CCCC)(CCCC)CCCC.O=S(=O)([N-]S(=O)(=O)C(F)(F)F)C(F)(F)F, the activity coefficient is, setting by setting: (358.15 K) 0.983 ± 0.062; (368.15 K) 1.01 ± 0.06; (378.15 K) 1.04 ± 0.07; (388.15 K) 1.07 ± 0.07; (398.15 K) 1.1 ± 0.07; (408.15 K) 1.13 ± 0.07.

With `O` [water] + CCCC[P+](CCCC)(CCCC)CCCC.O=S(=O)([N-]S(=O)(=O)C(F)(F)F)C(F)(F)F, the activity coefficient (358.15 K) turned out to be 4.2 ± 0.29; the activity coefficient (368.15 K) worked out at 3.85 ± 0.26; the activity coefficient (378.15 K) was 3.53 ± 0.24; the activity coefficient (388.15 K) was found to be 3.26 ± 0.22; the activity coefficient (398.15 K) stood at 3.02 ± 0.21; the activity coefficient (408.15 K) was found to be 2.81 ± 0.19.
